According to patent US8669249B2, “Poly (ADP-ribose) polymerase (PARP) inhibitors” (Takeda Pharmaceutical Company Limited, priority 2009, dated 2014):

Key:
Jurkat cell line = assay: PARP cellular chemopotentiation assay (MTS, with/without TMZ); type: cell-based; details: Chemopotentiation factor: ratio of EC50 values of Jurkat cells co-treated without and with 100 μM TMZ; 96 hours
Procedure: Potentiation Factor (PF50) Determination from PARP Cellular Chemopotentiation Assay
Jurkat cell line was maintained according to the supplier (American Type Culture Collection (Rockville, Md.)). Cells were seeded in 96-well tissue culture microplates at 10,000 cells per well and cultured for 24 hours prior to addition of compounds, TMZ (Temozolomide) or DMSO (dimethylsulfoxide) vehicle. After 96 hours of treatment, the conversion of MTS ([3-(4,5-dimethylthiazol-2-yl)-5-(3-carboxymethoxyphenyl)-2-(4-sulfophenyl)-2H-tetrazolium, inner salt], Promega, Madison, Wis.) by metabolically active cells was determined through measuring the OD490 nm with a Spectramax microplate reader (Molecular Devices, San Diego, Calif.). To generate concentration-response curves, cells were treated in duplicate with a range of serial compound dilutions (final DMSO concentration was 0.5%) in the absence or presence of 100 μM TMZ chemoreagent. The percentage of viable cells per well was calculated by correction for background and normalizing against DMSO-treated cells. EC50 values for inhibition of cell viability were calculated using XLfit4 MicroSoft Excel curve-fitting software. Chemopotentiation factor PF50 was calculated as the ratio of EC50 values of cells co-treated without and with TMZ, respectively.

PARP = target: T1, PARP (Homo sapiens, UniProt P09874); assay: PARP ELISA (ELISA-based colorimetric PARP/Apoptosis Assay kit, Trevigen); type: biochemical; details: pIC50=-log10 IC50, IC50 in mol/L; inhibition of PARP catalytic activity
T1 construct: purchased Trevigen 4684-096-K HT (kit); 4684-096-01 (PARP enzyme)
T1 sequence (P09874 whole entry): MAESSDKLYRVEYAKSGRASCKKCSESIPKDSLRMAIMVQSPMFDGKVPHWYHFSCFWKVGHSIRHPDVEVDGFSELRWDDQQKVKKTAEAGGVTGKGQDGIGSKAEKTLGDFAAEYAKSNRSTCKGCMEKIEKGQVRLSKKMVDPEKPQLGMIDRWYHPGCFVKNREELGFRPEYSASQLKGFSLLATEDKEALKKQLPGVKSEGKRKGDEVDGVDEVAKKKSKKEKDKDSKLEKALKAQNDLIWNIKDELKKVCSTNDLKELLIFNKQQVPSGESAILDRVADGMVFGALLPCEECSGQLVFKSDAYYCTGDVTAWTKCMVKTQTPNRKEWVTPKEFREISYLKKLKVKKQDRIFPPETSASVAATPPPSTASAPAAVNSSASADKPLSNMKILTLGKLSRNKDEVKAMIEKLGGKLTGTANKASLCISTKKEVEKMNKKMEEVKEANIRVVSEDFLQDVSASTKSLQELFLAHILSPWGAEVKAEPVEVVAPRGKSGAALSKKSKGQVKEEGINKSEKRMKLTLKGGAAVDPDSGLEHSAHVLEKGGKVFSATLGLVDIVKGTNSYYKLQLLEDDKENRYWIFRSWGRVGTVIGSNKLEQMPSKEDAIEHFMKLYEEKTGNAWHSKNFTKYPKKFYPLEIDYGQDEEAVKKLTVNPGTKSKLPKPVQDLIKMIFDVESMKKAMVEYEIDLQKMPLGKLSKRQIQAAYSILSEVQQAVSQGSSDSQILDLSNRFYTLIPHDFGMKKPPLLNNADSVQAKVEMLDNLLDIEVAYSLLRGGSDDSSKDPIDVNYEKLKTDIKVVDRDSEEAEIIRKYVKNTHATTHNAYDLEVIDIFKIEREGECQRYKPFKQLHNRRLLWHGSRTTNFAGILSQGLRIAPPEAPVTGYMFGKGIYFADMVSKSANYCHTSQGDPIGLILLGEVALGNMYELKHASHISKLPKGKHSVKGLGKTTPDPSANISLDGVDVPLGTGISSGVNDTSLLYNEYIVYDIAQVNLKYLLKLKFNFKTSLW
In short: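 Quenched after 10 min catalysis by aspiration and four PBS/0.1% Triton X-100 washes. Poly(ADP-ribose) detected with mouse anti-PAR monoclonal antibody, goat anti-mouse IgG-HRP and HRP substrate; colorimetric signal proportional to PARP catalytic activity.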

| Structure (SMILES) | PF50 (Jurkat cell line) | IC50 (PARP) [nM] |
| --- | --- | --- |
| CCNC(=O)c1ccc(N2CCN(Cc3ccc4c(c3)NC(=O)CO4)CC2)c(Cl)c1 [Compound 367, 3-Chloro-N-ethyl-4-(4-((3-oxo-3,4-dihydro-2H-benzo[b][1,4]oxazin-6-yl)methyl)piperazin-1-yl)benzamide] | 2.5 | > 200 |
| CC(=O)c1ccc(N2CCN(Cc3ccc4c(c3)NC(=O)C(C)O4)CC2)cc1 (centres unmarked) [Compound 218, 6-((4-(4-Acetylphenyl)piperazin-1-yl)methyl)-2-methyl-2H-benzo[b][1,4]oxazin-3(4H)-one] | ≦0.9 | ≥ 126 |
| CCNC(=O)c1ccc(N2CCN(Cc3ccc4c(c3)NC(=O)[C@@H](C)O4)CC2)cc1 [Compound 250, (R)-N-Ethyl-4-(4-((2-methyl-3-oxo-3,4-dihydro-2H-benzo[b][1,4]oxazin-6-yl)methyl)piperazin-1-yl)benzamide] | 2.0-9.9 | ≤ 31.6 |
| CNC(=O)c1ccc(N2CCN(Cc3cc(Cc4ccccc4)c4c(c3)NC(=O)C(C)O4)CC2)cc1 (centres unmarked) [Compound 353, 4-(4-((8-Benzyl-2-methyl-3-oxo-3,4-dihydro-2H-benzo[b][1,4]oxazin-6-yl)methyl)piperazin-1-yl)-N-methylbenzamide] | 1.3 | > 200 |
| CC1Oc2ccc(Cn3ncc4ccccc43)cc2NC1=O (centres unmarked) [Compound 345, 6-((1H-Indazol-1-yl)methyl)-2-methyl-2H-benzo[b][1,4]oxazin-3(4H)-one] | 1.2 | 79.4 |
| CNC(=O)c1ccc(N2CCC(Cc3ccc4c(c3)NC(=O)C(C)O4)CC2)cc1 (centres unmarked) [Compound 390, N-Methyl-4-(4-((2-methyl-3-oxo-3,4-dihydro-2H-benzo[b][1,4]oxazin-6-yl)methyl)piperidin-1-yl)benzamide] | 1.0 | > 200 |
| CNC(=O)c1ccc(N2CCN(Cc3cc(F)c4c(c3)NC(=O)C(C)O4)CC2)nc1 (centres unmarked) [Compound 314, 6-(4-((8-Fluoro-2-methyl-3-oxo-3,4-dihydro-2H-benzo[b][1,4]oxazin-6-yl)methyl)piperazin-1-yl)-N-methylnicotinamide] | 1.8 | 31.6 |
| CC1Oc2cc(F)c(CN3CCN(c4ccc(C#N)cc4)CC3)cc2NC1=O (centres unmarked) [Compound 339, 4-(4-((7-Fluoro-2-methyl-3-oxo-3,4-dihydro-2H-benzo[b][1,4]oxazin-6-yl)methyl)piperazin-1-yl)benzonitrile] | 1.0 | 79.4 |
| CCNC(=O)c1ccc(N2CCN(Cc3cc4c(c(C5CC5)c3)OC(C)C(=O)N4)CC2)cc1 (centres unmarked) [Compound 346, 4-(4-((8-Cyclopropyl-2-methyl-3-oxo-3,4-dihydro-2H-benzo[b][1,4]oxazin-6-yl)methyl)piperazin-1-yl)-N-ethylbenzamide] | 8.6 | 100 |
| CNC(=O)c1ccc(N2CCN(Cc3cc4c(c(OC)c3)OCC(=O)N4)CC2)c(C)c1 [Compound 376, 4-(4-((8-Methoxy-3-oxo-3,4-dihydro-2H-benzo[b][1,4]oxazin-6-yl)methyl)piperazin-1-yl)-N,3-dimethylbenzamide] | >6.0 | 15.8 |
| CC1Oc2c(cc(CN3CCN(c4ccc(C#N)cc4)CC3)cc2C2CC2)NC1=O (centres unmarked) [Compound 352, 4-(4-((8-Cyclopropyl-2-methyl-3-oxo-3,4-dihydro-2H-benzo[b][1,4]oxazin-6-yl)methyl)piperazin-1-yl)benzonitrile] | 6.3 | 79.4 |
| CCNC(=O)c1ccc(N2CCN(Cc3cc4c(c(OC)c3)OCC(=O)N4)CC2)c(C)c1 [Compound 374, N-Ethyl-4-(4-((8-methoxy-3-oxo-3,4-dihydro-2H-benzo[b][1,4]oxazin-6-yl)methyl)piperazin-1-yl)-3-methylbenzamide] | <2.0 | 31.6 |
| CCNC(=O)c1ccc(N2CCN(Cc3cc(Cl)c4c(c3)NC(=O)C(C)O4)CC2)cc1 (centres unmarked) [Compound 309, 4-(4-((8-Chloro-2-methyl-3-oxo-3,4-dihydro-2H-benzo[b][1,4]oxazin-6-yl)methyl)piperazin-1-yl)-N-ethylbenzamide] | 5.2 | 5.01 |
| CC1Oc2cc(F)c(CN3CC=C(c4ccc(Cl)cc4)CC3)cc2NC1=O (centres unmarked) [Compound 331, 6-((4-(4-Chlorophenyl)-5,6-dihydropyridin-1(2H)-yl)methyl)-7-fluoro-2-methyl-2H-benzo[b][1,4]oxazin-3(4H)-one] | 1.3 | > 200 |
| CC1Oc2c(Cl)cc(CN3CC=C(c4ccc(Cl)cc4)CC3)cc2NC1=O (centres unmarked) [Compound 166, 8-Chloro-6-((4-(4-chlorophenyl)-5,6-dihydropyridin-1(2H)-yl)methyl)-2-methyl-2H-benzo[b][1,4]oxazin-3(4H)-one] | 1.0-1.9 | ≥ 126 |
| CC1Oc2ccc(CC3CCN(c4ccccc4)CC3)cc2NC1=O (centres unmarked) [Compound 389, 2-Methyl-6-((1-phenylpiperidin-4-yl)methyl)-2H-benzo[b][1,4]oxazin-3(4H)-one] | 1.1 | > 200 |
| CC1Oc2c(Cl)cc(CN3CCN(c4ccc(Cl)cc4)CC3)cc2NC1=O (centres unmarked) [Compound 167, 8-Chloro-6-((4-(4-chlorophenyl)piperazin-1-yl)methyl)-2-methyl-2H-benzo[b][1,4]oxazin-3(4H)-one] | ≦0.9 | 39.8 to 100 |
| CNC(=O)c1ccc(N2CCN(Cc3cc4c(c(C5CC5)c3)OC(C)C(=O)N4)CC2)cc1 (centres unmarked) [Compound 347, 4-(4-((8-Cyclopropyl-2-methyl-3-oxo-3,4-dihydro-2H-benzo[b][1,4]oxazin-6-yl)methyl)piperazin-1-yl)-N-methylbenzamide] | 10.1 | 100 |
| CC1Oc2c(cc(CN3CCN(c4ccc(C(=O)NC5CC5)cc4)CC3)cc2C2CC2)NC1=O (centres unmarked) [Compound 348, N-Cyclopropyl-4-(4-((8-cyclopropyl-2-methyl-3-oxo-3,4-dihydro-2H-benzo[b][1,4]oxazin-6-yl)methyl)piperazin-1-yl)benzamide] | >5 | 251 |
| CNC(=O)c1ccc(N2CCN(Cc3cc(Cl)c4c(c3)NC(=O)C(C)O4)CC2)cc1 (centres unmarked) [Compound 308, 4-(4-((8-Chloro-2-methyl-3-oxo-3,4-dihydro-2H-benzo[b][1,4]oxazin-6-yl)methyl)piperazin-1-yl)-N-methylbenzamide] | 6.3 | 20 |
| COc1cc(CN2CCN(c3ccc(C(=O)NC4CC4)cc3F)CC2)cc2c1OC(C)C(=O)N2 (centres unmarked) [Compound 372, N-Cyclopropyl-3-fluoro-4-{4-[(8-methoxy-2-methyl-3-oxo-3,4-dihydro-2H-1,4-benzoxazin-6-yl)methyl]piperazin-1-yl}benzamide] | 1.0 | 20 |
| CC1Oc2ccc(Cn3cc4ccccc4n3)cc2NC1=O (centres unmarked) [Compound 344, 6-((2H-Indazol-2-yl)methyl)-2-methyl-2H-benzo[b][1,4]oxazin-3(4H)-one] | 1.3 | > 200 |
| CCNC(=O)c1ccc(N2CCN(Cc3cc4c(c(OC)c3)OC(C)C(=O)N4)CC2)c(F)c1 (centres unmarked) [Compound 360, N-Ethyl-3-fluoro-4-(4-((8-methoxy-2-methyl-3-oxo-3,4-dihydro-2H-benzo[b][1,4]oxazin-6-yl)methyl)piperazin-1-yl)benzamide] | 3.1 | 39.8 |
| COc1cc(CN2CCN(c3ccc(C(=O)NC4CC4)cc3C)CC2)cc2c1OCC(=O)N2 [Compound 375, N-cyclopropyl-4-(4-((8-methoxy-3-oxo-3,4-dihydro-2H-benzo[b][1,4]oxazin-6-yl)methyl)piperazin-1-yl)-3-methylbenzamide] | >2.0 | 15.8 |
| CNC(=O)c1ccc(N2CCN(Cc3cc4c(c(OC(F)F)c3)OC(C)C(=O)N4)CC2)c(C)c1 (centres unmarked) [Compound 406, 4-(4-((8-(Difluoromethoxy)-2-methyl-3-oxo-3,4-dihydro-2H-benzo[b][1,4]oxazin-6-yl)methyl)piperazin-1-yl)-N,3-dimethylbenzamide] | 13 | 63.1 |
| CNC(=O)c1ccc(N2CCN(Cc3cc4c(c(OC)c3)OC(C)C(=O)N4)CC2)c(C)c1 (centres unmarked) [Compound 362, 4-(4-((8-Methoxy-2-methyl-3-oxo-3,4-dihydro-2H-benzo[b][1,4]oxazin-6-yl)methyl)piperazin-1-yl)-N,3-dimethylbenzamide] | >1700 | 31.6 |
| Cc1cc(C(=O)NC2CC2)ccc1N1CCN(Cc2cc(C)c3c(c2)NC(=O)C(C)O3)CC1 (centres unmarked) [Compound 386, N-Cyclopropyl-4-(4-((2,8-dimethyl-3-oxo-3,4-dihydro-2H-benzo[b][1,4]oxazin-6-yl)methyl)piperazin-1-yl)-3-methylbenzamide] | >5.0 | 50.1 |
| CCCc1cc(CN2CCN(c3ccc(C(=O)NC)cc3)CC2)cc2c1OC(C)C(=O)N2 (centres unmarked) [Compound 358, N-Methyl-4-(4-((2-methyl-3-oxo-8-propyl-3,4-dihydro-2H-benzo[b][1,4]oxazin-6-yl)methyl)piperazin-1-yl)benzamide] | >3.0 | > 200 |
